Test results taken from patent US8673929B2, “4,6-di- and 2,4,6-trisubstituted quinazoline derivatives and pharmaceutical compositions useful for treating viral infections” (priority 2006, dated 2014).
pEC50: −log10 of the molar value.

Columns and labels:
[1] = test system: HCV replicon; assay: Anti-HCV replicon assay, EC50 (luciferase readout); format: cell-based; details: Hepatitis C virus, 72 h; Huh-7 HCV replicon cells, 3 days incubation, luciferase luminescence
How it was run: (§1)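 Huh-7 cells harbouring an HCV replicon (6000/well) incubated 3 days at 37° C with 3-fold serially diluted compound (0.5% DMSO final where used). EC50 from luciferase luminescence of lysed cells; CC50 from CellTiter-Glo luminescence in parallel plates.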

[2] = CC50 assay in the anti-HCV replicon assay (CellTiter-Glo); format: cell-based, human; details: human, Huh-7 hepatoma cells harbouring an HCV replicon; Huh-7 HCV replicon cells, 3 days incubation, CellTiter-Glo luminescence
How it was run: as §1

| Structure (SMILES) | pEC50 [1] | CC50 at 3 days [2] [µM] |
| --- | --- | --- |
| Nc1nc(OCCF)c2cc(-c3ccc(C(=O)N4CCCCC4)cc3)ccc2n1 [Example 196, {4-[2-Amino-4-(2-fluoro-ethoxy)-quinazolin-6-yl]-phenyl}-piperidin-1-yl-methanone] | 5.00 to 6.00 | > 20 |
| Nc1nc(OCCF)c2cc(-c3ccc(C(=O)NCc4ccccc4)cc3)ccc2n1 [Example 197, 4-[2-Amino-4-(2-fluoro-ethoxy)-quinazolin-6-yl]-N-benzyl-benzamide] | 5.00 to 6.00 | 10 to 20 |
| CC(C)CNC(=O)c1ccc(-c2ccc3nc(N)nc(OCCF)c3c2)cc1 [Example 198, 4-[2-Amino-4-(2-fluoro-ethoxy)-quinazolin-6-yl]-N-isobutyl-benzamide] | 5.00 to 6.00 | 10 to 20 |
| CCCCNC(=O)c1ccc(-c2ccc3nc(N)nc(OCCF)c3c2)cc1 [Example 199, 4-[2-Amino-4-(2-fluoro-ethoxy)-quinazolin-6-yl]-N-butyl-benzamide] | 5.00 to 6.00 | > 20 |
| CC(C)(C)NC(=O)c1ccc(-c2ccc3nc(N)nc(OCCF)c3c2)cc1 [Example 200, 4-[2-Amino-4-(2-fluoro-ethoxy)-quinazolin-6-yl]-N-tert-butyl-benzamide] | 5.00 to 6.00 | > 20 |
| Nc1nc(OCCF)c2cc(-c3ccc(C(=O)NC4CCCC4)cc3)ccc2n1 [Example 201, 4-[2-Amino-4-(2-fluoro-ethoxy)-quinazolin-6-yl]-N-cyclopentyl-benzamide] | 5.00 to 6.00 | 10 to 20 |
| CC(C)NC(=O)c1ccc(-c2ccc3nc(N)nc(OCCF)c3c2)cc1 [Example 202, 4-[2-Amino-4-(2-fluoro-ethoxy)-quinazolin-6-yl]-N-isopropyl-benzamide] | 5.00 to 6.00 | > 20 |
| CONC(=O)c1ccc(-c2ccc3nc(N)nc(OCCF)c3c2)cc1 [Example 203, 4-[2-Amino-4-(2-fluoro-ethoxy)-quinazolin-6-yl]-N-methoxy-benzamide] | 5.00 to 6.00 | > 20 |
| Nc1nc(OCCF)c2cc(-c3ccc(C(=O)N4CCSC4)cc3)ccc2n1 [Example 204, {4-[2-Amino-4-(2-fluoro-ethoxy)-quinazolin-6-yl]-phenyl}-thiazolidin-3-yl-methanone] | 5.00 to 6.00 | > 20 |
| Nc1nc(OCCF)c2cc(-c3ccc(C(=O)N4CCSCC4)cc3)ccc2n1 [Example 205, {4-[2-Amino-4-(2-fluoro-ethoxy)-quinazolin-6-yl]-phenyl}-thiomorpholin-4-yl-methanone] | 5.00 to 6.00 | > 20 |
| Nc1nc(OCCF)c2cc(-c3ccc(C(=O)NC4=NCCS4)cc3)ccc2n1 [Example 206, 4-[2-Amino-4-(2-fluoro-ethoxy)-quinazolin-6-yl]-N-(4,5-dihydro-thiazol-2-yl)-benzamide] | 5.00 to 6.00 | > 20 |
| CNC(=O)c1ccc(-c2ccc3nc(N)nc(OCCF)c3c2)cc1Cl [Example 207, 4-[2-Amino-4-(2-fluoro-ethoxy)-quinazolin-6-yl]-2-chloro-N-methyl-benzamide] | 5.00 to 6.00 | > 20 |
| Nc1nc(OCCF)c2cc(-c3ccc(C(=O)NC4CC4)c(Cl)c3)ccc2n1 [Example 208, 4-[2-Amino-4-(2-fluoro-ethoxy)-quinazolin-6-yl]-2-chloro-N-cyclopropyl-benzamide] | 5.00 to 6.00 | > 20 |
| Nc1nc(OCCF)c2cc(-c3ccc(O)cc3)ccc2n1 [Example 209, 4-[2-Amino-4-(2-fluoro-ethoxy)-quinazolin-6-yl]-phenol] | 5.00 to 6.00 | > 20 |
| Nc1nc(OCCF)c2cc(-c3cccc(O)c3)ccc2n1 [Example 210, 3-[2-Amino-4-(2-fluoro-ethoxy)-quinazolin-6-yl]-phenol] | 5.00 to 6.00 | > 20 |
| Nc1nc(OCCF)c2cc(-c3ccc(C(=O)NC4CC4)cc3)ccc2n1 [Example 211, 4-[2-Amino-4-(2-fluoro-ethoxy)-quinazolin-6-yl]-N-cyclopropyl-benzamide] | 6.00 to 6.52 | > 20 |
| CNC(=O)c1ccc(-c2ccc3nc(N)nc(OCCF)c3c2)cc1 [Example 212, 4-[2-Amino-4-(2-fluoro-ethoxy)-quinazolin-6-yl]-N-methyl-benzamide] | 5.00 to 6.00 | > 20 |
| Nc1nc(OC[C@@H]2CCCO2)c2cc(-c3ccc(C(=O)NC4CC4)cc3)ccc2n1 [Example 213] | > 6.52 | > 20 |
| CCOc1nc(N)nc2ccc(-c3ccc(C(N)=O)cc3)cc12 [Example 214, 4-(2-Amino-4-ethoxy-quinazolin-6-yl)-benzamide] | > 6.52 | > 20 |

| Structure (SMILES) | pEC50 [1] | CC50 at 3 days [2] [µM] |
| --- | --- | --- |
| Nc1nc(O[C@H]2CCOC2)c2cc(-c3ccc(C(=O)NC4CC4)cc3)ccc2n1 [Example 215, (S)-4-[2-Amino-4-(tetrahydro-furan-3-yloxy)-quinazolin-6-yl]-N-cyclopropyl-benzamide] | > 6.52 | > 20 |
| CN(C)CCNC(=O)c1ccc(-c2ccc3nc(N)nc(O[C@H]4CCOC4)c3c2)cc1 [Example 216] | > 6.52 | > 20 |
| Nc1nc(O[C@@H]2CCOC2)c2cc(-c3ccc(C(=O)NCCN4CCOCC4)cc3)ccc2n1 [Example 217, (R)-4-[2-Amino-4-(tetrahydro-furan-3-yloxy)-quinazolin-6-yl]-N-(2-morpholin-4-yl-ethyl)-benzamide] | > 6.52 | > 20 |
| Nc1nc(O[C@@H]2CCOC2)c2cc(-c3ccc(C(=O)NCCN4CCCC4)cc3)ccc2n1 [Example 218, (R)-4-[2-Amino-4-(tetrahydro-furan-3-yloxy)-quinazolin-6-yl]-N-(2-pyrrolidin-1-yl-ethyl)-benzamide] | > 6.52 | < 10 |
| Nc1nc(O[C@@H]2CCOC2)c2cc(-c3ccc(C(=O)NCC(F)(F)F)cc3)ccc2n1 [Example 219, (R)-4-[2-Amino-4-(tetrahydro-furan-3-yloxy)-quinazolin-6-yl]-N-(2,2,2-trifluoro-ethyl)-benzamide] | > 6.52 | > 20 |
| Nc1nc(O[C@@H]2CCOC2)c2cc(-c3ccc(C(=O)NCCCN4CCCC4)cc3)ccc2n1 [Example 220, (R)-4-[2-Amino-4-(tetrahydro-furan-3-yloxy)-quinazolin-6-yl]-N-(3-pyrrolidin-1-yl-propyl)-benzamide] | > 6.52 | < 10 |
| CC(C)(CN1CCOCC1)NC(=O)c1ccc(-c2ccc3nc(N)nc(O[C@@H]4CCOC4)c3c2)cc1 [Example 222, (R)-4-[2-Amino-4-(tetrahydro-furan-3-yloxy)-quinazolin-6-yl]-N-(1,1-dimethyl-2-morpholin-4-yl-ethyl)-benzamide] | > 6.52 | > 20 |
| CC(C)(CN1CCCC1)NC(=O)c1ccc(-c2ccc3nc(N)nc(O[C@@H]4CCOC4)c3c2)cc1 [Example 223, (R)-4-[2-Amino-4-(tetrahydro-furan-3-yloxy)-quinazolin-6-yl]-N-(1,1-dimethyl-2-pyrrolidin-1-yl-ethyl)-benzamide] | > 6.52 | < 10 |
| N#CC1(NC(=O)c2ccc(-c3ccc4nc(N)nc(O[C@@H]5CCOC5)c4c3)cc2)CC1 [Example 224, (R)-4-[2-Amino-4-(tetrahydro-furan-3-yloxy)-quinazolin-6-yl]-N-(1-cyano-cyclopropyl)-benzamide] | > 6.52 | > 20 |
| CC(C)N1CCC(NC(=O)c2ccc(-c3ccc4nc(N)nc(O[C@@H]5CCOC5)c4c3)cc2)CC1 [Example 225, (R)-4-[2-Amino-4-(tetrahydro-furan-3-yloxy)-quinazolin-6-yl]-N-(1-isopropyl-piperidin-4-yl)-benzamide] | 5.00 to 6.00 | > 20 |
| CN(C)CCCOc1nc(N)nc2ccc(-c3cc4ccccc4o3)cc12 [Example 227, 6-benzofuran-2-yl-4-(3-dimethylaminopropoxy)-quinazolin-2-ylamine] | 5.00 to 6.00 | > 20 |
| CN(C)CCCOc1nc(N)nc2ccc(-c3ccc(Cl)cc3Cl)cc12 [Example 229, 6-(2,4-Dichlorophenyl)-4-(3-dimethylamino-propoxy)-quinazolin-2-ylamine] | 5.00 to 6.00 | > 20 |
| CN(C)CCCOc1nc(N)nc2ccc(-c3cc(F)c(F)c(F)c3)cc12 [Example 230, 4-(3-Dimethylamino-propoxy)-6-(3,4,5-trifluoro-phenyl)-quinazolin-2-ylamine] | 5.00 to 6.00 | > 20 |
| Cc1cc(C)cc(-c2ccc3nc(N)nc(OCCCN(C)C)c3c2)c1 [Example 231, 4-(3-Dimethylamino-propoxy)-6-(3,5-dimethyl-phenyl)-quinazolin-2-ylamine] | 5.00 to 6.00 | > 20 |
| CN(C)CCCOc1nc(N)nc2ccc(-c3ccc(Cl)cc3)cc12 [Example 232, 6-(4-Chloro-phenyl)-4-(3-dimethylamino-propoxy)-quinazolin-2-ylamine] | 5.00 to 6.00 | > 20 |
| CN(C)CCCOc1nc(N)nc2ccc(-c3cccc(C(F)(F)F)c3)cc12 [Example 233, 4-(3-Dimethylamino-propoxy)-6-(3-trifluoromethyl-phenyl)-quinazolin-2-ylamine] | 5.00 to 6.00 | > 20 |
| Nc1nc(OCCN2CCOCC2)c2cc(-c3ccc(Cl)c(C(F)(F)F)c3)ccc2n1 [Example 234, 6-(4-Chloro-3-trifluoromethyl-phenyl)-4-(2-morpholin-4-yl-ethoxy)-quinazolin-2-ylamine] | 5.00 to 6.00 | 10 to 20 |
| Nc1nc(OCCN2CCOCC2)c2cc(-c3ccc(O)cc3)ccc2n1 [Example 235, 4-[2-Amino-4-(2-morpholin-4-yl-ethoxy)-quinazolin-6-yl]-phenol] | 5.00 to 6.00 | > 20 |
| Nc1nc(OCCN2CCOCC2)c2cc(-c3ccsc3)ccc2n1 [Example 236, 4-(2-Morpholin-4-yl-ethoxy)-6-thiophen-3-yl-quinazolin-2-ylamine] | 5.00 to 6.00 | > 20 |
